A short description of data set [1]: Half-life in 50 mM phosphate buffer of pH 7.5 at 37 degreeC by 1H NMR method. Conditions: for half-life: phosphate buffer; for t1/2: buffer. In kind it is physicochemical.
In data set [2] the target is T1, E3 ubiquitin-protein ligase XIAP (Homo sapiens, UniProt P98170).
The target of data set [3] is T1, E3 ubiquitin-protein ligase XIAP. The source holds these as a separate data set.
Data set [4] is described as follows: Aqueous stability of the compound in simulated gastric fluid at pH 1.5 by NMR spectroscopy.
The nature of data set [5]: Aqueous stability of the compound pH 7.2 by NMR spectroscopy. In kind it is physicochemical. Conditions: buffer.
A short description of data set [6]: Half-life in mouse plasma at 200 uM by LC-MS method. The class given is ADME, cell-free.
A short description of data set [7]: Half-life of the compound at pH 7.2 by NMR spectroscopy. The class given is physicochemical.
Data set [8] can be described thus: Stability in mouse plasma at 200 uM by LC-MS method. The class given is ADME, cell-free.
Data set [9] is described as follows: Drug degradation in mouse plasma at 200 uM after 40 min by LC-MS method. The class given is ADME, cell-free. The conditions noted are these: read-out: Drug degradation.
The test system of data set [10] is SK-OV-3. The experiment in a line: Induction of apoptosis in human SKOV3 cells assessed caspase-3 activation after 24 hrs by IncuCyte S3 live-cell analysis. In kind it is functional, cell-based. Conditions: SK-OV-3, 24 h.
Data set [11] relates to SK-OV-3. The data set is described as follows: Induction of apoptosis in human SKOV3 cells assessed caspase-3 activation after 48 hrs by IncuCyte S3 live-cell analysis. The class given is functional, cell-based. Conditions: SK-OV-3, 48 h.
In data set [12] the target is T1, E3 ubiquitin-protein ligase XIAP. The data set is described as follows: biochemical.
The target is the same in data set [13]. The data set is described as follows: biochemical. This is another data set of the same source.

Consider ten compounds from ChEMBL document CHEMBL4304749, “Covalent Inhibitors of Protein-Protein Interactions Targeting Lysine, Tyrosine, or Histidine Residues” (J Med Chem, 2019).

Square brackets hold non-standard residues; d marks the D form. Peptide text beside a SMILES is read from it. Tyr(SO2F) = N[C@@H](Cc1ccc(OS(=O)(=O)F)cc1)C(=O)O; NMeA = CN[C@@H](C)C(=O)O

T1 sequence (P98170 whole entry): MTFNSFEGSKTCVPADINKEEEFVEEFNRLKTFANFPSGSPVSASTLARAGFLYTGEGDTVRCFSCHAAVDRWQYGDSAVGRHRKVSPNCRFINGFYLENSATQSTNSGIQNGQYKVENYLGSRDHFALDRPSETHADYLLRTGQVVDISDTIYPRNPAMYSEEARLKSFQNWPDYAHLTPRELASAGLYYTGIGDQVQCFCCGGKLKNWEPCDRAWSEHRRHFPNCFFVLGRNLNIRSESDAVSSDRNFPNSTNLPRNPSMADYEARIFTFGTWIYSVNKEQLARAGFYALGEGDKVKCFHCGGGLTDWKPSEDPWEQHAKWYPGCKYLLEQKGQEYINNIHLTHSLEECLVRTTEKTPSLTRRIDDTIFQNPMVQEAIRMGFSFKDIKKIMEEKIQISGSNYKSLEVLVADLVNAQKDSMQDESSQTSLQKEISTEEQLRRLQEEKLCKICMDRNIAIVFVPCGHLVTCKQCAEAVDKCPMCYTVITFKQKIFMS

`CC(C)[C@H](NC(=O)[C@H](C)N)C(=O)N1CCC[C@H]1C(=O)N[C@@H](Cc1ccccc1)C(=O)O` (H-AVPF-OH): the half-life – broadly, how long it takes for the measured level to halve – in data set [1] is greater than 5 h. The results for the ΔTm in data set [2] and in data set [3] were 5.5 °C and 17 °C, respectively.

With `CN[C@@H](C)C(=O)N[C@@H](CNCc1ccc(S(=O)(=O)F)cc1)C(=O)N1CCC[C@H]1C(=O)N[C@@H](Cc1ccccc1)C(N)=O`, the half-life in data set [1] was 2.5 h. Further, the Stability result in data set [4] and in data set [5] was “Stable” each time.

In turn, `CN[C@@H](C)C(=O)N[C@@H](Cc1ccc(OS(=O)(=O)F)cc1)C(=O)N1CCC[C@H]1C(=O)N[C@@H]1CCc2c(F)cccc21` yielded a half-life at 200 µM in data set [6] greater than 2 h.

With `CN[C@@H](C)C(=O)N[C@@H](CNC(=O)c1ccc(S(=O)(=O)F)cc1)C(=O)N1CCC[C@H]1C(=O)N[C@@H](Cc1ccccc1)C(N)=O`, the half-life in [7] and in data set [1] was 0.5 h in each case. Besides, the Stability entry in data set [4] was “Stable”; in [8], “Unstable”.

Turning to `CN[C@@H](C)C(=O)N[C@@H](CNCc1ccc(S(=O)(=O)F)cc1)C(=O)N1CCC[C@H]1C(=O)N[C@@H]1CCc2c(F)cccc21`, the half-life at 200 µM in data set [6] is 0.25 h. For the same compound, the metabolised at 40 min, 200 µM in [9] came to 100%.

`CN[C@@H](C)C(=O)N[C@@H](Cc1ccc(S(=O)(=O)O)cc1)C(=O)N1CCC[C@H]1C(=O)N[C@@H](Cc1ccccc1)C(N)=O` gave a t1/2 in data set [1] greater than 5 h.

As to `CN[C@@H](C)C(=O)N[C@@H](Cc1ccc(OS(=O)(=O)F)cc1)C(=O)N1CCC[C@H]1C(=O)N[C@@H](Cc1ccccc1)C(N)=O` (H-[NMeA][Tyr(SO2F)]PF-NH2), the t1/2 in data set [1] is greater than 5 h. Further, the Stability entry in data set [4] and in data set [5] was “Stable” each time.

`CN[C@@H](C)C(=O)N[C@H](C(=O)N1CCC[C@H]1c1nc(C(=O)c2ccc(F)cc2)cs1)C1CCCCC1` [LCL-161]: the half-life at 200 µM in [6] was greater than 2 h. In addition, the EC50 (as a rule, the concentration at which the effect is half-maximal) in the data set on SK-OV-3 [10] was determined as 3 nM; in the data set on SK-OV-3 [11], 1 nM.

In [6], `CN[C@@H](C)C(=O)N[C@@H](Cc1ccc(OS(=O)(=O)F)cc1)C(=O)N1CCC[C@H]1C(=O)NC1Cc2ccccc2C1` displayed a half-life at 200 µM greater than 2 h.

The compound `CN[C@@H](C)C(=O)N[C@H](C(=O)N1CCC[C@H]1C(=O)Nc1snnc1-c1ccccc1)C1CCCCC1` [GDC-0152] had a half-life at 200 µM in data set [6] of 1 h. For the same compound, the values for the EC50 in the data set with SK-OV-3 [10] and in the data set with SK-OV-3 [11] were 3 nM and 2.5 nM, respectively. The results for the ΔTm in data set [2] and in data set [3] were 15 °C and 19.5 °C, respectively. The IC50 in data set [12] and in [13] was 21 nM throughout.
